pIC50: −log10 of the molar value. Where a SMILES comes first, the peptide text is derived from it. The star is where a group is joined. Cbz = O=C(OCc1ccccc1)*; CH2F = FC*
Tests used:
[1] = system: PARP cleavage in Jurkat cells; experiment: Inhibition of PARP cleavage in antiFas-treated Jurkat cells (Example 22, Western blot); type: cell-based, human; conditions: antiFas-treated Jurkat cells
Source text: The cleavage of the enzyme poly(ADP)ribose polymerase (PARP) appears to occur in all cells in which the caspase proteolytic cascade is activated. For this reason, PARP cleavage is widely used as a biochemical marker for caspase-mediated apoptosis. The ability of a cytoprotective drug to block PARP cleavage is considered to be an indication of the drug's ability to inhibit the caspase proteolytic cascade and, in particular, CPP32 (caspase-3), the main PARP protease. The ability of Cbz-Val-Asp(OMe)-CH2F to inhibit PARP cleavage was examined during Fas-mediated apoptosis of Jurkat cells, a human T-cell line. This cell culture model of apoptosis is well-characterized and is known to involve activation of at least two caspases, caspase-3 (CPP32) and caspase-8 (FLICE/MACH).
For PARP cleavage assays, Jurkat cells were seeded at a density of 500,000 cells per well in six-well multidishes in RPMI 1640 medium containing 10% FBS. The cells were pre-incubated with Cbz-Val-Asp(OMe)-CH2F or other test compounds for 2 hours at 37° C. in a CO2 incubator and then a monoclonal antibody to Fas was added at a final concentration of 500 ng/mL. Incubation at 37° C. in a CO2 incubator was continued for an additional 4 hours. […] An amount of lysate corresponding to 10 to 20 μg of protein was loaded on a 7.5% SDS polyacrylamide gel and electrophoresed for 2 to 2.5 hrs at 25 mA. The protein was then transferred to a PVDF membrane, probed with a rabbit polyclonal antibody to PARP, and visualized using chemiluminescence.
Jurkat cells were pre-incubated with 0.5, 5, or 50 μM of the following compounds: Cbz-Val-Asp(OMe)-CH2F (compound 1); BOC-Asp(OMe)-CH2F (compound 5); Cbz-Asp-α-([2,6-dichlorobenzoyloxy]-methyl ketone) (compound 6), Cbz-Glu(OMe)-Val-Asp(OMe)-CH2F (compound 3), Cbz-Asp(OMe)-Glu(OMe)-Val-Asp(OMe)-CH2F (SEQ ID NO:1) (compound 2), Cbz-Ile-Glu(OMe)-Thr-Asp(OMe)-CH2F (SEQ ID NO:2) (compound 4), or Cbz-Val-Ala-Asp(OMe)-CH2F (compound 7). The cells were then treated with antiFas and processed for Western Blotting.

HeLa cells [2] = experiment: Cell death assay with HeLa cells, qualitative (phase contrast microscopy), TNF-α/CHX challenge; type: cell-based; conditions: 24 hour incubation
Method: (§1) The cytoprotective properties of Cbz-Val-Asp(OMe)CH2F were tested using HeLa cells challenged with tumor necrosis factor-alpha (TNF-α) and cycloheximide (CHX). This is a well-characterized cell culture model of apoptosis which is commonly used to analyze anti-apoptotic agents. Two types of experiments were performed: a qualitative assessment of cell death by visualization of the cells using phase contrast microscopy; and a quantitative assessment of cell death using the fluorescent dye calcein AM.
For photomicroscopy, HeLa cells are seeded in 12-well multidishes at a density of 100,000 cells per well in Minimal Essential Medium containing 2 mM glutamine and 10% fetal bovine serum. 24 hours later the plating medium is removed and fresh medium is added containing the cytoprotective test compound at various concentrations. The cells are pre-incubated with test compound for 2 hours at 37° C. in a CO2 incubator and then TNF-α and CHX are added at final concentrations of 25 ng/mL and 30 μg/mL, respectively. After a 24 hour incubation period, the cells are examined visually for evidence of cell death based on cell shape and degree of adherence. Cells are considered dead if they have become rounded up and phase bright and have detached from the substratum. Cells are considered alive if they have retained their normal morphology and remain attached to the substratum.
All of these compounds are the methyl ester derivatives. […] At 50 μM, the related peptides BOC-Asp(OMe)-CH2F (FIG. 1C) and Cbz-Glu(OMe)-Val-Asp(OMe)-CH2F (FIG. 1E) are also protective.

HeLa cells [3] = experiment: Effect of Z-VD-fmk on TNF-α-induced cell death in HeLa cells (calcein AM, Example 25); type: cell-based; conditions: below 50 μM (data not shown)
Method: Tumor necrosis factor alpha (TNF-α) can trigger apoptosis in a number of cell types by initiating the caspase cascade and its apoptosis inducing activity can be inhibited by peptide-based caspase inhibitors. However, high concentrations of the inhibitors (50 μM or greater) is required to have good anti-apoptotic effect. HeLa cells, a cell line commonly employed in TNF-α cell death studies, was used here to determine the anti-apoptotic potency of Z-VD-fmk.
HeLa cells were seeded in 48-well multidishes at a density of 50,000 cells per well 24 hours before treatment. They were then pre-incubated with varying concentrations of Z-VD-fmk for 2 hours and challenged with TNF-α (25 ng/mL) and cycloheximide (CHX; 30 μg/mL). The cultures were incubated for an additional 24 hours and dead cells were removed by two washes with PBS. The density of surviving cells was then measured by incubating each culture for 45 minutes with calcein AM, a profluorescent dye which is taken up by living cells and converted to a fluorescent product. The resulting data were expressed as % control values (control values were cells incubated with cycloheximide but without TNF-α).
Z-VD-fmk provided good cytoprotection at concentrations approaching 100 nM.

Caspase-3 = target: T1, Caspase-3 (Homo sapiens, UniProt P42574); experiment: Caspase-3 activity of the dipeptide inhibitors (Table III); type: biochemical
T1 sequence (P42574 29-175 limits assumed): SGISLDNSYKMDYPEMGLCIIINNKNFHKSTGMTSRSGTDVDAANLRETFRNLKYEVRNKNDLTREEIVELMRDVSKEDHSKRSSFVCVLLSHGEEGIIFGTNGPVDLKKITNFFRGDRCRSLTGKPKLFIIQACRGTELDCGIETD

HeLa cells [4] = experiment: Cell death assay with HeLa cells, quantitative (calcein AM), TNF-α/CHX challenge; type: cell-based
Method: as §1
For quantitative assays, the degree of cell survival in the presence of test compounds is analyzed quantitatively using the indicator dye calcein AM. This dye is taken up and converted to a fluorescent derivative by living cells; the amount of activated dye in each well can then be assayed in a fluorometric plate reader and the degree of fluorescence is used as a measure of the number of surviving cells. For these assays, HeLa cells are seeded in 48-well plates at a density of 25,000 cells per well in 0.4 mL of Minimal Essential Medium containing 2 mM glutamine and 10% fetal bovine serum. 24 hours later the plating medium is removed and 0.5 mL of fresh medium containing test compound at various concentrations is added. The cells are pre-incubated with test compound for 2 hours at 37° C. in a CO2 incubator and then TNF-α and CHX are added at final concentrations of 25 ng/mL and 30 μg/mL, respectively. After a 24 hour incubation period, the cultures are washed twice with serum-free, phenol red-free Ham's F12 to remove dead cells and 125 μL of Ham's F12 containing 8 μM calcein AM is added. […] The data are expressed as “Percent Control,” which is calculated by the following equation: Percent Control=(Calcein AM Signal in the Presence of Test Compound+TNF-α and CHX/(Calcein AM Signal in the Presence of CHX Only)×100% The use of CHX-treated cultures as controls, rather than untreated cultures, allows one to correct for the cytostatic effects of CHX. However, because CHX by itself is also a mild inducer of apoptosis in HeLa cells, strong anti-apoptotic drugs will give a Percent Control value greater than 100%.
Quantitative experiments using calcein AM, as described above, corroborate the results obtained by microscopic examination. FIGS. 4 and 5 illustrate the results of two such experiments where the cytoprotective properties of Cbz-Val-Asp(OMe)-CH2F (a) were compared to BOC-Asp(OMe)-CH2F (b) (FIG. 5) and Cbz-Asp(OMe)-Glu(OMe)-Val-Asp(OMe)-CH2F (SEQ ID NO:1) (c) (FIG. 4) at three concentrations (0.5, 5 and 50 μM). […] By contrast, Cbz-Val-Asp(OMe)-CH2F (a) is as effective a cytoprotectant at 0.5 μM as Cbz-Asp(OMe)-Glu(OMe)-Val-Asp(OMe)-CH2F (SEQ ID NO:1) […] is at 50 μM (FIG. 4).
In order to determine the effect of Cbz-Val-Asp(OMe)-CH2F at low doses, HeLa cells were treated with a range of concentrations from 0.05 μM to 1 μM.

Row | pIC50 (Caspase-3) | Compound | inhibition of PARP cleavage ([1]; 0.5 μM) | inhibition of PARP cleavage ([1]; 5 μM) | inhibition of PARP cleavage ([1]; 50 μM) | further results
1 |  | COC(=O)CC[C@H](NC(=O)OCc1ccccc1)C(=O)N[C@H](C(=O)N[C@@H](CC(=O)OC)C(=O)CF)C(C)C [Cbz-Glu(OMe)-Val-Asp(OMe)-CH2F] | only marginally effective | effective inhibitors | effective inhibitors | cytoprotection of HeLa cells from apoptotic effects of TNF-α and CHX (microscopy) (HeLa cells [2]; 5 μM): less effective; cytoprotection of HeLa cells from apoptotic effects of TNF-α and CHX (microscopy) (HeLa cells [2]; 50 μM): protective
2 |  | CC(=O)N[C@@H](CC(=O)O)C(=O)N[C@@H](CCC(=O)O)C(=O)N[C@H](C(=O)N[C@H](C=O)CC(=O)O)C(C)C [Ac-DEVD-CHO] |  |  |  | cytoprotection against TNF-α-induced cell death (HeLa cells [3]): very ineffective
3 | 5.46 | Cbz-Ala-Asp-CH2F [Z- -Ala-Asp-fmk] |  |  |  | 
4 |  | COC(=O)CC[C@H](NC(=O)[C@H](CC(=O)OC)NC(=O)OCc1ccccc1)C(=O)N[C@H](C(=O)N[C@@H](CC(=O)OC)C(=O)CF)C(C)C [Cbz-Asp(OMe)-Glu(OMe)-Val-Asp(OMe)-CH2F] | only marginally effective | only marginally effective | inhibited PARP cleavage completely | cytoprotection of HeLa cells from apoptotic effects of TNF-α and CHX (microscopy) (HeLa cells [2]; 5 μM): no cytoprotective properties; cytoprotection of HeLa cells from apoptotic effects of TNF-α and CHX (microscopy) (HeLa cells [2]; 50 μM): only marginally effective; protection of HeLa cells from TNF-α/CHX (calcein AM) (HeLa cells [4]; 50 μM): only minimally effective
5 |  | COC(=O)CC[C@H](NC(=O)[C@H](CC(=O)OC)NC(=O)OCc1ccccc1)C(=O)N[C@H](C(=O)N[C@@H](CC(=O)OC)C(=O)CF)C(C)C [Z-DEVD-fmk] |  |  |  | cytoprotection against TNF-α-induced cell death (HeLa cells [3]): very ineffective
6 |  | COC(=O)C[C@H](NC(=O)[C@H](C)NC(=O)[C@@H](NC(=O)OCc1ccccc1)C(C)C)C(=O)CF [Cbz-Val-Ala-Asp(OMe)-CH2F] (Cbz-Val-Ala-Asp(OMe)-CH2F) | only marginally effective | effective inhibitors | effective inhibitors | cytoprotection of HeLa cells from TNF-α/CHX at low doses (HeLa cells [4]; concentration range 0.05 μM to 1 μM): no cytoprotection
7 |  | CC[C@H](C)[C@H](NC(=O)OCc1ccccc1)C(=O)N[C@@H](CCC(=O)OC)C(=O)N[C@H](C(=O)N[C@@H](CC(=O)OC)C(=O)CF)[C@@H](C)O [Cbz-Ile-Glu(OMe)-Thr-Asp(OMe)-CH2F] (Cbz-IE(OMe)TD(OMe)-CH2F) | only marginally effective | only marginally effective | inhibited PARP cleavage completely | 
8 | 6.39 | O=C(O)C[C@H](NC(=O)[C@@H]1CCCN1C(=O)OCc1ccccc1)C(=O)CF [Z-L-Pro-Asp-fmk, Z-Pro-Asp-fmk] (Cbz-Pro-Asp-CH2F) |  |  |  | 
9 | 6.18 | O=C(O)C[C@H](NC(=O)[C@H](Cc1ccc(O)cc1)NC(=O)OCc1ccccc1)C(=O)CF [Z-L-Tyr-Asp-fmk, Z-Tyr-Asp-fmk] (Cbz-Tyr-Asp-CH2F) |  |  |  | 
10 |  | O=C(O)CC(NC(=O)OCc1ccccc1)C(=O)COC(=O)c1c(Cl)cccc1Cl (stereo not drawn) [Cbz-Asp-DCB, Cbz-Asp-α-([2,6-dichlorobenzoyloxy]methylketone)] | only marginally effective | only marginally effective | inhibited PARP cleavage completely | 
11 | 6.11 | O=C(O)CC(NC(=O)C(Cc1cnc[nH]1)NC(=O)OCc1ccccc1)C(=O)CF [Z-L-His-Asp-fmk, Z-His-Asp-fmk] (Cbz-His-Asp-CH2F; configuration not given here) |  |  |  | 
12 |  | COC(=O)CC(NC(=O)OC(C)(C)C)C(=O)CF (stereo not drawn) [BOC-Asp(OMe)-CH2F] | only marginally effective | effective inhibitors | effective inhibitors | cytoprotection of HeLa cells from apoptotic effects of TNF-α and CHX (microscopy) (HeLa cells [2]; 5 μM): less effective; cytoprotection of HeLa cells from apoptotic effects of TNF-α and CHX (microscopy) (HeLa cells [2]; 50 μM): protective; protection of HeLa cells from TNF-α/CHX (calcein AM) (HeLa cells [4]; 0.5 μM): inactive; protection of HeLa cells from TNF-α/CHX (calcein AM) (HeLa cells [4]; 5 μM): effective cytoprotectant; protection of HeLa cells from TNF-α/CHX (calcein AM) (HeLa cells [4]; 50 μM): effective cytoprotectant
13 | 5.89 | CC(C)[C@@H](C(=O)N[C@@H](CC(=O)O)C(=O)CF)N(C)C(=O)OCc1ccccc1 [Z-N-Me-L-Val-Asp-fmk, Z-N-Me-Val-Asp-fmk] |  |  |  | 

— patent US6949516B2, “Dipeptide apoptosis inhibitors and the use thereof” (Cytovia, Inc., priority 1997, dated 2005)
